Tests used:
[1] = system: GCT cultured cells; test: Cell proliferation of GCT cultured cells, Cell Counting Kit-8, absorbance at 450 nm; type: cell-based, human; conditions: GCT cultured cells case 1, case 2
Method: (§1) GCT cultured cells (case 1, patient with osteoclastoma in a distal part of the right femur; case 2, patient with osteoclastoma in a distal part of the right femur) were cultured on a 96-well culture plate, zaltoprofen was added to the cells at various concentrations (5, 10, 50, 100, and 200 μM), color development was attained with Cell Counting Kit-8 (CCK-8) (Dojindo) 24 hours thereafter, and absorbance was measured at 450 nm 3 hours thereafter (FIG. 1).
In the same manner as that of Example 1, the GOT cultured cells (case 1, case 2) were cultured, a non-steroidal anti-inflammatory agent (acetaminophen, indomethacin, or diclofenac) or troglitazone was added at various concentrations, and absorbance was measured at 450 nm (FIGS. 12 and 13).
(§2) In the same manner as that of Example 1, the GCT cultured cells (case 1, case 2), the cells derived from giant cell tumor of tendon sheath (GCT of tendon sheath), or the cells derived from pigmented villonodular synovitis (diffuse-type GCT) were cultured, and then pioglitazone, a thiazolidine derivative, was added at various concentrations, and absorbance was measured at 450 nm (FIG. 32).

[2] = system: cultured cells of pigmented villonodular synovitis; test: Cell proliferation of cultured cells of pigmented villonodular synovitis, CCK-8; type: cell-based, human; conditions: various concentrations
Method: as §1, §2

[3] = system: pigmented villonodular synovitis; test: MRI and symptom evaluation of patients with recurrence of pigmented villonodular synovitis in the right knee administered with zaltoprofen; type: in vivo, human; conditions: person, 3 tablets per day
Method: (§3) Soleton Tablet 80 (generic name: zaltoprofen, 80 mg, Nippon Chemiphar) was administered to a patient with osteoclastoma, a patient with giant cell tumor of tendon sheath, or a patient with pigmented villonodular synovitis at a dose of 3 tablets per day (administered in morning, at noon, and in evening), and the tumor size was evaluated by MRI every several months.

[4] = system: caspase 3; test: Caspase 3 staining of chondrosarcoma-derived cell line; type: cell-based; conditions: 200 μM zaltoprofen, compared with control
Method: (§4) Further, the aforementioned GCT cultured cells of the case 1 were cultured on chamber cover slide glass, and zaltoprofen was added at different concentrations (100, and 200 μM) 24 hours afterward. Then, 8 hours and 24 hours afterward, the cells were fixed with 4% paraformaldehyde, staining with caspase 3 and Tunel assay were performed, and presence or absence of apoptosis was analyzed. Observation was performed with a fluorescence microscope (BZ-9000) of Keyence, and positive images for each concentration were quantitatively observed (FIGS. 2 to 5).
Further, in the same manner as that of Example 1, the chondrosarcoma-derived cell line was subjected to caspase 3 staining, and presence or absence of apoptosis was analyzed (FIGS. 46 and 47). As a result, it was successfully observed that the caspase 3-positive ratio increased in the cells added with zaltoprofen at a concentration of 200 μM, troglitazone at a concentration of 100 μM, or pioglitazone at a concentration of 200 μM, compared with the control.

[5] = system: chondrosarcoma-derived cell line (H-EMC-SS); test: Cell proliferation of chondrosarcoma-derived cell line, CCK-8; type: cell-based; conditions: various concentrations
[6] = system: PPARγ; test: Effect of PPARγ siRNA on GCT cultured cells after addition of drug, CCK-8; type: cell-based, human; conditions: 200 μM; 72 hours; GCT cultured cells case 1, case 2
Method: The cells (case 1, case 2) were cultured on a 96-well culture plate, allowed to react with PPARγ siRNA, negative control siRNA, or only with the transfection reagents (Thermo Scientific DharmaFECT, Thermo Scientific) for 48 hours, and further cultured in a usual culture medium for 48 hours. Then, 200 μM of zaltoprofen or 60 μM of troglitazone was added to the cells, 72 hours thereafter, color development was performed with Cell Counting Kit-8 (CCK-8, Dojindo), and 3 hours thereafter, absorbance was measured at 450 nm (FIGS. 14 and 15).

[7] = system: caspase 3; test: Caspase 3 staining of cultured cells of giant cell tumor of tendon sheath; type: cell-based, human; conditions: 400 μM, compared with control
Method: as §4, with “5). […] Further, in the same manner as that of Example 1, the cultured cells of giant cell tumor of tendon sheath and the cultured cells of pigmented villonodular synovitis were subjected to staining with caspase 3 and Tunel assay, and presence or absence of apoptosis was analyzed (FIGS. 18 to 25). As a result, it was observed that the Tunel-positive ratio and caspase 3-positive ratio increased in the cells added with zaltoprofen at a concentration of 400 μM or troglitazone at a concentration of 2000 μM compared with those observed for the control.” for “5).”

[8] = system: PPARγ; test: PPARγ staining of operational excision sample of GCT patient administered with zaltoprofen; type: in vivo, human; conditions: 3 tablets per day (80 mg) for about 28 days
Method: (§5) An operational excision sample of a person who had been administered with 3 tablets per day of the zaltoprofen tablets, Soleton Tablet 80 (generic name: zaltoprofen, 80 mg, Nippon Chemiphar) for about 28 days for pain due to the tumor, and then subjected to the operation, and an operational excision sample of a patient with osteoclastoma not administered with zaltoprofen as a control were subjected to staining of PPARγ, and expression of PPARγ was analyzed. Observation was performed with a fluorescence microscope (BZ-9000) of Keyence (FIG. 11).

[9] = system: osteoclastoma (GCT); test: Tunel assay of operational excision sample of GCT patient administered with zaltoprofen; type: in vivo, human; conditions: 3 tablets per day (80 mg) for about 28 days
Method: (§6) An operational excision sample of a person who had been administered with 3 tablets per day of the zaltoprofen tablets, Soleton Tablet 80 (generic name: zaltoprofen, 80 mg, Nippon Chemiphar) for about 28 days for pain due to the tumor, and then subjected to the operation, and an operational excision sample of a patient with osteoclastoma not administered with zaltoprofen as a control were subjected to caspase 3 staining and Tunel assay, and analyzed for the presence or absence of apoptosis. Observation was performed with a fluorescence microscope (BZ-9000) produced by Keyence (FIG. 10). As a result, almost no Tunel-positive cells and caspase 3-positive cells were observed among the cells derived from the GCT patient not administered with zaltoprofen, whilst Tunel-positive cells and caspase 3-positive cells were observed among the cells derived from the patient administered with zaltoprofen.

[10] = system: GCT cultured cells; test: Tunel assay of GCT cultured cells; type: cell-based, human; conditions: case 1; 100 and 200 μM; 8 hours and 24 hours
Method: as §4

[11] = system: PPARγ; test: PPARγ immunostaining of GCT cultured cells; type: cell-based, human; conditions: case 1; 10, 50, 100, and 200 μM; 24 hours
Method: The GCT cultured cells of the aforementioned case 1 were cultured on chamber cover slide glass, and 24 hours thereafter, zaltoprofen was added at various concentrations (10, 50, 100, and 200 μM). After 24 hours, the cells were fixed with 4% paraformaldehyde, and staining of PPARγ was performed. Observation was performed with a fluorescence microscope (BZ-9000) of Keyence, and positive images for each concentration were quantitatively observed (FIGS. 6 and 7).

[12] = system: PPARγ; test: PPARγ immunostaining of cells derived from pigmented villonodular synovitis; type: cell-based, human; conditions: 400 μM
[13] = system: osteoclastoma; test: MRI evaluation of patient with recurrence of osteoclastoma in the pelvic part administered with zaltoprofen; type: in vivo, human
Method: as §3

[14] = system: PPARγ; test: PPARγ immunostaining of chondrosarcoma-derived cell line; type: cell-based; conditions: 200 μM zaltoprofen
[15] = system: cultured cells of pigmented villonodular synovitis; test: Tunel assay of cultured cells of pigmented villonodular synovitis; type: cell-based, human; conditions: 400 μM, compared with control
Method: as §4, with “5). […] Further, in the same manner as that of Example 1, the cultured cells of giant cell tumor of tendon sheath and the cultured cells of pigmented villonodular synovitis were subjected to staining with caspase 3 and Tunel assay, and presence or absence of apoptosis was analyzed (FIGS. 18 to 25). As a result, it was observed that the Tunel-positive ratio and caspase 3-positive ratio increased in the cells added with zaltoprofen at a concentration of 400 μM or troglitazone at a concentration of 2000 μM compared with those observed for the control.” for “5).”

[16] = system: cells derived from giant cell tumor of tendon sheath; test: Fat cell differentiation of cells derived from giant cell tumor of tendon sheath, lipid stain; type: cell-based, human; conditions: 400 μM, compared with control
Method: (§7) It has been reported that PPARγ is a transcription factor indispensable for fat cell differentiation. Therefore, the GCT cultured cells of the aforementioned case 1 were cultured on chamber cover slide glass, and when they reached confluent, zaltoprofen was added to the cells at various concentrations (10, 50, and 100 μM). From 24 hours thereafter, the cells were cultured in a fat cell differentiation-inducing medium (STREMPRO Adipogenesis Differentiation Kit, Invitrogen) for 7 to 14 days, and differentiation into fat cells was analyzed with HCS LipidTOX Green Neutral Lipid Stain (Invitrogen) (FIGS. 8 and 9).
(§8) As described in Example 3, it has been reported that PPARγ is a transcription factor indispensable for fat cell differentiation. Therefore, zaltoprofen was added at a concentration of 400 μM to the cells derived from giant cell tumor of tendon sheath or the cells derived from pigmented villonodular synovitis, and differentiation into fat cells was analyzed (FIGS. 30 and 31). As a result, it was successfully observed that the positive images obtained with HCS LipidTOX Green Neutral Lipid Stain increased in the zaltoprofen-added cells compared with the control.

[17] = system: caspase 3; test: Caspase 3 staining of operational excision sample of GCT patient administered with zaltoprofen; type: in vivo, human; conditions: 3 tablets per day (80 mg) for about 28 days
Method: as §6

[18] = system: osteoclastoma (GCT); test: Fat cell differentiation in operational excision sample of GCT patient administered with zaltoprofen; type: in vivo, human; conditions: 3 tablets per day (80 mg) for about 28 days
Method: as §5

[19] = system: cultured cells of giant cell tumor of tendon sheath; test: Tunel assay of cultured cells of giant cell tumor of tendon sheath; type: cell-based, human; conditions: 400 μM, compared with control
Method: as §4, with “5). […] Further, in the same manner as that of Example 1, the cultured cells of giant cell tumor of tendon sheath and the cultured cells of pigmented villonodular synovitis were subjected to staining with caspase 3 and Tunel assay, and presence or absence of apoptosis was analyzed (FIGS. 18 to 25). As a result, it was observed that the Tunel-positive ratio and caspase 3-positive ratio increased in the cells added with zaltoprofen at a concentration of 400 μM or troglitazone at a concentration of 2000 μM compared with those observed for the control.” for “5).”

[20] = system: caspase 3; test: Caspase 3 staining of GCT cultured cells; type: cell-based, human; conditions: case 1; 100 and 200 μM; 8 hours and 24 hours
Method: as §4

[21] = system: caspase 3; test: Caspase 3 staining of cultured cells of pigmented villonodular synovitis; type: cell-based, human; conditions: 400 μM, compared with control
Method: as §4, with “5). […] Further, in the same manner as that of Example 1, the cultured cells of giant cell tumor of tendon sheath and the cultured cells of pigmented villonodular synovitis were subjected to staining with caspase 3 and Tunel assay, and presence or absence of apoptosis was analyzed (FIGS. 18 to 25). As a result, it was observed that the Tunel-positive ratio and caspase 3-positive ratio increased in the cells added with zaltoprofen at a concentration of 400 μM or troglitazone at a concentration of 2000 μM compared with those observed for the control.” for “5).”

[22] = system: GCT cultured cells; test: Fat cell differentiation of GCT cultured cells, HCS LipidTOX Green Neutral Lipid Stain; type: cell-based, human; conditions: case 1; 10, 50, and 100 μM; fat cell differentiation-inducing medium 7 to 14 days
Method: as §7

[23] = system: cultured cells of giant cell tumor of tendon sheath; test: Cell proliferation of cultured cells of giant cell tumor of tendon sheath, CCK-8; type: cell-based, human; conditions: various concentrations
Method: as §1, §2

[24] = system: PPARγ; test: PPARγ immunostaining of cells derived from giant cell tumor of tendon sheath; type: cell-based, human; conditions: 400 μM
[25] = system: cells derived from pigmented villonodular synovitis; test: Fat cell differentiation of cells derived from pigmented villonodular synovitis, lipid stain; type: cell-based, human; conditions: 400 μM, compared with control
Method: as §7, §8

CC(=O)Nc1ccc(O)cc1 [acetaminophen]
cell proliferation (absorbance at 450 nm) ([1]; various concentrations): suppressed in a non-steroidal anti-inflammatory agent concentration-dependent manner

O=C(O)Cc1ccccc1Nc1c(Cl)cccc1Cl [diclofenac]
cell proliferation (absorbance at 450 nm) ([1]; various concentrations): suppressed in a non-steroidal anti-inflammatory agent concentration-dependent manner

COc1ccc2c(c1)c(CC(=O)O)c(C)n2C(=O)c1ccc(Cl)cc1 [indomethacin]
cell proliferation (absorbance at 450 nm) ([1]; various concentrations): suppressed in a non-steroidal anti-inflammatory agent concentration-dependent manner

CC(C(=O)O)c1ccc2c(c1)CC(=O)c1ccccc1S2 (stereo not drawn) [zaltoprofen]
cell proliferation (absorbance) [2]: suppressed in a zaltoprofen or troglitazone concentration-dependent manner
MRI imaging effect ([3]; after three months): attenuation of the MRI imaging effect
tumor size evaluated by MRI ([3]; after two months): shrinkage of tumor
caspase 3-positive ratio [4]: increased
cell proliferation (absorbance at 450 nm) ([1]; 5, 10, 50, 100, and 200 μM, 24 hours): concentration-dependent suppression of the cell proliferation
cell proliferation (absorbance) [5]: suppressed in a troglitazone, pioglitazone, or zaltoprofen concentration-dependent manner
effect of the drug on cell proliferation in the PPARγ siRNA addition group [6]: significantly suppressed
caspase 3-positive ratio [7]: increased
PPARγ-expressing cells [8]: PPARγ-expressing cells were observed
Tunel-positive cells [9]: observed
Tunel-positive ratio [10]: concentration and administration time-dependent increases
expression of PPARγ (PPARγ-positive cells) [11]: increased in a zaltoprofen concentration-dependent manner
expression of PPARγ (PPARγ-positive images) [12]: expression of PPARγ was successfully observed
MRI image of the pelvic part (arrows) ([13]; after four months of administration): tumor necrosis region
MRI image of the pelvic part (arrows) ([13]; after two months of administration): tumor necrosis region
expression of PPARγ (PPARγ-positive images) [14]: expression of PPARγ was successfully observed
Tunel-positive ratio [15]: increased
positive images obtained with HCS LipidTOX Green Neutral Lipid Stain (differentiation into fat cells) [16]: increased
caspase 3-positive cells [17]: observed
fat cell differentiation [18]: fat cell differentiation was observed
Tunel-positive ratio [19]: increased
caspase 3-positive ratio [20]: concentration and administration time-dependent increases
caspase 3-positive ratio [21]: increased
positive images obtained with HCS LipidTOX Green Neutral Lipid Stain (differentiation into fat cells) [22]: increased in a zaltoprofen concentration-dependent manner
cell proliferation (absorbance) [23]: suppressed in a zaltoprofen or troglitazone concentration-dependent manner
expression of PPARγ (PPARγ-positive images) [24]: expression of PPARγ was successfully observed
positive images obtained with HCS LipidTOX Green Neutral Lipid Stain (differentiation into fat cells) [25]: increased

From patent publication US10660882B2, “Prophylactic or therapeutic agent for giant cell tumors occurring in bone and soft tissue or for chondrosarcoma” (NIPPON CHEMIPHAR CO., LTD., priority 2012, dated 2020)
